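These data come from cells grown in 96-well plates and exposed to compound for 48 hours at five concentrations. GI50 marks 50% less growth.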 The source made the active and inactive calls. Rule as the data show it: active = GI50 up to about 1.1 µM and inactive = higher.
Key:
Experiment in all cases: NCI-60 cell line screen, 48 h
SF-268 = system: SF-268
SF-539 = system: SF-539
M14 = system: M14
NCI-H23 = system: NCI-H23
SK-MEL-28 = system: SK-MEL-28
MOLT-4 = system: MOLT-4
U-251 = system: U-251
OVCAR-5 = system: OVCAR-5
TK-10 = system: TK-10
Malme-3M = system: Malme-3M
UACC-62 = system: UACC-62
HCT-15 = system: HCT-15
IGROV-1 = system: IGROV-1
OVCAR-8 = system: OVCAR-8
EKVX = system: EKVX
HCC 2998 = system: HCC 2998
SW-620 = system: SW-620
SR = system: SR

| SMILES | GI50 (SF-268) | GI50 (SF-539) | GI50 (M14) | GI50 (NCI-H23) | GI50 (SK-MEL-28) | GI50 (MOLT-4) | GI50 (U-251) | GI50 (OVCAR-5) | GI50 (TK-10) | GI50 (Malme-3M) | GI50 (UACC-62) | GI50 (HCT-15) | GI50 (IGROV-1) | GI50 (OVCAR-8) | GI50 (EKVX) | GI50 (HCC 2998) | GI50 (SW-620) | GI50 (SR) |
| --- | --- | --- | --- | --- | --- | --- | --- | --- | --- | --- | --- | --- | --- | --- | --- | --- | --- | --- |
| N=c1oc2c(O)c(O)ccc2cc1C(N)=O | 96.4 µM (inactive) | > 100 µM (inactive) | 43 µM (inactive) | > 100 µM (inactive) | 85.7 µM (inactive) | 34 µM (inactive) | 90.6 µM (inactive) | > 100 µM (inactive) | > 100 µM (inactive) | 84.3 µM (inactive) | 35.1 µM (inactive) | > 100 µM | > 100 µM (inactive) | 24.5 µM (inactive) | 47.2 µM (inactive) | > 100 µM (inactive) | 32.1 µM (inactive) |  |
| Cc1ccc(NC(=O)CCc2nnc(N)o2)cc1 | > 100 µM (inactive) | > 100 µM (inactive) | > 100 µM (inactive) | > 100 µM (inactive) | > 100 µM (inactive) | > 100 µM (inactive) | > 100 µM (inactive) | > 100 µM (inactive) | > 100 µM (inactive) | > 100 µM (inactive) | > 100 µM (inactive) | > 100 µM | > 100 µM (inactive) | > 100 µM (inactive) | > 100 µM (inactive) | > 100 µM (inactive) | > 100 µM (inactive) |  |
| Cc1ccc(S(=O)(=O)ON/N=C2/C3OC3[C@@H]3CCCC[C@H]23)cc1 (stereo partly specified) | > 100 µM (inactive) | > 100 µM (inactive) | > 100 µM (inactive) | > 100 µM (inactive) | > 100 µM (inactive) | > 100 µM (inactive) | > 100 µM (inactive) |  | > 100 µM (inactive) | > 100 µM (inactive) | > 100 µM (inactive) | > 100 µM | > 100 µM (inactive) | 0.507 µM (active) | > 100 µM (inactive) | 71.4 µM (inactive) | > 100 µM (inactive) | > 100 µM (inactive) |
| O=C(O)/C=C/n1c2ccccc2c(=O)c2ccccc21 | > 100 µM (inactive) | > 100 µM (inactive) | > 100 µM (inactive) | > 100 µM (inactive) | > 100 µM (inactive) | > 100 µM (inactive) | > 100 µM (inactive) | > 100 µM (inactive) |  | > 100 µM (inactive) | > 100 µM (inactive) | > 100 µM | > 100 µM (inactive) | > 100 µM (inactive) | > 100 µM (inactive) | > 100 µM (inactive) | > 100 µM (inactive) | > 100 µM (inactive) |
| Nc1ncnc2c1ncn2C1OC(CSC(F)F)C(O)C1O (stereo unspecified) | > 100 µM (inactive) | > 100 µM (inactive) | > 100 µM (inactive) | > 100 µM (inactive) | > 100 µM (inactive) | > 100 µM (inactive) | > 100 µM (inactive) | > 100 µM (inactive) | > 100 µM (inactive) | > 100 µM (inactive) | > 100 µM (inactive) | > 100 µM | > 100 µM (inactive) | > 100 µM (inactive) | > 100 µM (inactive) | > 100 µM (inactive) | > 100 µM (inactive) |  |
| NC(CCC(=O)NC(CSC(=O)N(O)c1ccccc1)C(=O)NCC(=O)O)C(=O)O (stereo unspecified) | > 1000 µM (inactive) | > 1000 µM (inactive) | > 1000 µM (inactive) | > 1000 µM (inactive) | > 1000 µM (inactive) |  | > 1000 µM (inactive) | > 1000 µM (inactive) | > 1000 µM (inactive) | > 1000 µM (inactive) | > 1000 µM (inactive) | > 1000 µM | > 1000 µM (inactive) | > 1000 µM (inactive) | > 1000 µM (inactive) | > 1000 µM (inactive) | > 1000 µM (inactive) | > 1000 µM (inactive) |
| COc1ccc(/C(Cl)=C(\C=O)c2ccc(Br)cc2)cc1OC | 23.2 µM (inactive) | 26.1 µM (inactive) | > 100 µM (inactive) | 64.7 µM (inactive) | > 100 µM (inactive) | 4.27 µM (inactive) | 32.8 µM (inactive) | > 100 µM (inactive) | > 92.3 µM (inactive) | 47.8 µM (inactive) | 33.7 µM (inactive) | 25.1 µM | > 100 µM (inactive) | 31.9 µM (inactive) | > 48.4 µM (inactive) | > 100 µM (inactive) | > 100 µM (inactive) |  |
| O=S1(=O)CS(=O)(=O)OCCCCCO1 | > 100 µM (inactive) |  | > 100 µM (inactive) | > 100 µM (inactive) | > 100 µM (inactive) |  | > 100 µM (inactive) | > 100 µM (inactive) | > 100 µM (inactive) | > 100 µM (inactive) | > 100 µM (inactive) | > 100 µM | > 100 µM (inactive) | > 100 µM (inactive) | > 100 µM (inactive) | > 100 µM (inactive) | > 100 µM (inactive) |  |
| CC1CC(N2CCOCC2)=Nc2ccccc2N1C (stereo unspecified) | > 100 µM (inactive) | > 100 µM (inactive) | > 100 µM (inactive) | 80 µM (inactive) | > 100 µM (inactive) | 95.5 µM (inactive) | > 100 µM (inactive) | > 100 µM (inactive) | > 100 µM (inactive) | 56.4 µM (inactive) | > 100 µM (inactive) | > 100 µM | > 100 µM (inactive) | > 100 µM (inactive) | > 100 µM (inactive) |  | > 100 µM (inactive) |  |
| COc1ccc(CNc2cnc3cc(N)ccc3n2)cc1OC | > 100 µM (inactive) | > 100 µM (inactive) | > 100 µM (inactive) |  | > 100 µM (inactive) | > 100 µM (inactive) |  | > 10 µM (inactive) | > 100 µM (inactive) | > 100 µM (inactive) |  | > 100 µM |  | > 100 µM (inactive) | > 100 µM (inactive) | > 100 µM (inactive) | > 100 µM (inactive) | > 100 µM (inactive) |
| Cc1cn(C2CC(CCCO)C(CO)O2)c(=O)[nH]c1=O (stereo unspecified) | > 100 µM (inactive) |  | > 100 µM (inactive) | > 100 µM (inactive) | > 100 µM (inactive) |  | > 100 µM (inactive) | > 100 µM (inactive) | > 100 µM (inactive) | > 100 µM (inactive) | > 100 µM (inactive) | > 100 µM | > 100 µM (inactive) | > 100 µM (inactive) | > 100 µM (inactive) | > 100 µM (inactive) | > 100 µM (inactive) | > 100 µM (inactive) |
| Cc1c(C(=O)c2ccccc2C(=O)O)c2ccccc2n1C |  | > 100 µM (inactive) | > 100 µM (inactive) | > 100 µM (inactive) | > 100 µM (inactive) | > 100 µM (inactive) | > 100 µM (inactive) | > 100 µM (inactive) | > 100 µM (inactive) | > 100 µM (inactive) | > 100 µM (inactive) | > 100 µM | > 100 µM (inactive) | > 100 µM (inactive) | > 100 µM (inactive) | > 100 µM (inactive) | > 100 µM (inactive) |  |
| CC(C)(C)C#COC(=O)c1ccccc1 | > 100 µM (inactive) | > 100 µM (inactive) | > 100 µM (inactive) | > 100 µM (inactive) |  | > 100 µM (inactive) | > 100 µM (inactive) | > 100 µM (inactive) |  | > 100 µM (inactive) | > 100 µM (inactive) | > 100 µM | > 100 µM (inactive) | > 100 µM (inactive) | > 100 µM (inactive) | > 100 µM (inactive) | > 100 µM (inactive) | > 100 µM (inactive) |
| Cc1ccc(/C=C(\C#N)c2ccccc2)cc1 | > 100 µM (inactive) | > 100 µM (inactive) | > 100 µM (inactive) | > 100 µM (inactive) | > 100 µM (inactive) | > 100 µM (inactive) | > 100 µM (inactive) | > 100 µM (inactive) | > 100 µM (inactive) |  | > 100 µM (inactive) | > 100 µM | > 100 µM (inactive) | > 100 µM (inactive) |  | > 100 µM (inactive) | > 100 µM (inactive) | > 100 µM (inactive) |
| CN(C)CC/C(=N\Nc1c(F)c(F)c(F)c(F)c1F)c1ccccc1 | 90.4 µM (inactive) | 40.2 µM (inactive) | > 10 µM (inactive) | 77.1 µM (inactive) | > 100 µM (inactive) | 19.2 µM (inactive) | 42.4 µM (inactive) | 49.9 µM (inactive) | 62.7 µM (inactive) | 36.9 µM (inactive) | 34.5 µM (inactive) | 35.3 µM | 22.2 µM (inactive) | 93.3 µM (inactive) | > 100 µM (inactive) |  | 74.8 µM (inactive) | 17.6 µM (inactive) |
| CC(=O)OC1C[C@H]2C(OC(=O)c3ccccc3)C3C4(OC(C)=O)COC4C[C@H](OC(C)=O)[C@@]3(C)C(OC(C)=O)[C@H](OC(C)=O)C(=C1C)C2(C)C (stereo partly specified) | 24.9 µM (inactive) | 50 µM (inactive) | 23.2 µM (inactive) | 52.8 µM (inactive) | > 100 µM (inactive) | 20.1 µM (inactive) |  | > 100 µM (inactive) | 25.7 µM (inactive) | 71.8 µM (inactive) | 77.1 µM (inactive) | 47 µM | 41.8 µM (inactive) | 41.2 µM (inactive) | 50.7 µM (inactive) |  | 57.9 µM (inactive) |  |
| Cc1c2cc[n+](C)cc2c(C)c2c1[nH]c1ccc(Oc3ccccc3)cc12 | 0.738 µM (active) | 1.88 µM (inactive) | 4.48 µM (inactive) | 0.515 µM (active) | 3.28 µM (inactive) | 2.21 µM (inactive) | 0.308 µM (active) | 3.31 µM (inactive) |  | 1.76 µM (inactive) | 1.51 µM (inactive) | 3.05 µM | 2.23 µM (inactive) | 0.553 µM (active) | 3.61 µM (inactive) | 2.61 µM (inactive) | 0.843 µM (active) |  |

Reference: ChEMBL document CHEMBL1201862, “PubChem BioAssay data set” (2004)
